Measured values: patent publication US8492440B2, “Difluorophenyldiacylhydrazide derivatives” (Merck Patent GmbH, priority 2008, dated 2013)

Columns and labels:
SGK1 [1] = target: T1, SGK1 (Homo sapiens, UniProt O00141); assay: SGK1 protein kinase inhibition (enzyme), filter binding method; format: biochemical
T1 sequence (O00141 1-431): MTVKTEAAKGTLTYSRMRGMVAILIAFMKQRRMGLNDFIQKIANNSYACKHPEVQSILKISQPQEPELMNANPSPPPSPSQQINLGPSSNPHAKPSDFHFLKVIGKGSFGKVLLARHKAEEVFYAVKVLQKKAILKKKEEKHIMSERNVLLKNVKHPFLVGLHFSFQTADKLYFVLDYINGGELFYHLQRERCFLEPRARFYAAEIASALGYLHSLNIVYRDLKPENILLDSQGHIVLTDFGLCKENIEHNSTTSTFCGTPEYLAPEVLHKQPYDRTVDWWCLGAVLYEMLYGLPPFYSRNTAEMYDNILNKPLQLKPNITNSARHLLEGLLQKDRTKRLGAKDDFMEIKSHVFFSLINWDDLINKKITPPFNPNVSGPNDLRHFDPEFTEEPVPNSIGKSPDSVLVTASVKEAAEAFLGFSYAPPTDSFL
From the text: Other assays are known from the literature and could readily be performed by the person skilled in the art (see, for example, Dhanabal et al., Cancer Res. 59:189-197; Xin et al., J. Biol. Chem. 274:9116-9121; Sheu et al., Anticancer Res. 18:4435-4441; Ausprunk et al., Dev. Biol. 38:237-248; Gimbrone et al., J. Natl. Cancer Inst. 52:413-427; Nicosia et al., In Vitro 18:538-549). The inhibition of SGK1 protein kinase can be determined in the filter binding method.

SGK1 [2] = target: T1, SGK1; assay: Cell assay: P-NDRG1 level in HeLa cells (western blot), intracellular SGK1 inhibition; format: cell-based; set-up: endogenous in cells; host or cells: HeLa; settings: decrease of NDRG1 phosphorylation, 24 hrs incubation
Method: HeLa cells are plated out with a density of 10−20×10^3 cells/cm^2 in 6-well MTPs (Costar Corning, #3506) in DMEM medium, supplemented with 10% foetal calf serum (FCS), 2 mM glutamine and 1 mM sodium pyruvate. After 24 hrs. at 37° C. and with 5% CO2 in a cell incubator, each well is furthermore supplemented with 25 μl of a 100× DMSO solution of the compound; this solution is diluted 100-fold in the supernatant of the cell culture, which results in the expected SGK1 inhibitor concentration at a 1% DMSO concentration. The cells are incubated under the same conditions for a further 24 hrs.
The supernatants are subsequently removed (by suction), and the cells are washed once with 1 ml/well of ice-cold phosphate-buffered saline solution (PBS). 250 μl of the ice-cold lysis buffer (50 mM tris/HCl, 1 mM EDTA, 1 mM EGTA, 0.5 mM activated Na3VO4, 10 mM glycerophosphate, 50 mM NaF, 5 mM Na pyrophosphate, 1% Triton X100, 1 mM DTT, 0.1 mM PMSF and 1 μM microcystine and in each case 1 μg/ml of aprotinin, pepstatin or leupeptin) are added to each well. The cells are scraped down from the base of the well, and the cell suspension is sucked up several times with an Eppendorf pipette; the cells are thereby lysed and homogenised. […] The binding of the primary antibody was determined using antisheep IG antibody conjugated to […] peroxidase (1:5000 dilution, Calbiochem), followed by amplified chemiluminescence (SuperSignal West Dura Extended Duration, Pierce). […] The NDRG1 levels are determined after stripping of the nitrocellulose membranes using Restore™ western blot stripping buffer and the Pierce method.
On use of the P-NDRG1 antiserum, a decrease in the phosphorylation level of the NDRG1 protein can easily be detected. The decrease in the intensity of the bands in the western blot on use of the P-NDRG1 antiserum is determined, plotted against the cell culture medium concentration of the SGK1 inhibitor in a semi-logarithmic diagram and used for assessment of the intracellular inhibitor efficacy ([…]) of the SGK1 inhibitor. […]

Row | IC50 (SGK1 [1]) [nM] | IC50 (SGK1 [2]) [nM] | melting point [°C] | Compound
1 | > 10 | > 500 | – | CCc1c(C(=O)NNC(=O)Cc2ccc(F)c(F)c2)ccc(O)c1C [Compound 3, N′-[2-(3,4-Difluorophenyl)acetyl]-2-ethyl-4-hydroxy-3-methylbenzohydrazide]
2 | < 10 | < 500 | 217 | CCc1c(C(=O)NNC(=O)Cc2cc(F)c(F)c(OC)c2)ccc(O)c1C [Compound 1, N′-[2-(3,4-difluoro-5-methoxyphenyl)acetyl]-2-ethyl-4-hydroxy-3-methyl-benzohydrazide]
3 | > 10 | > 500 | 220.7 | CCc1c(C(=O)NNC(=O)Cc2cc(F)c(F)cc2OC)ccc(O)c1C [Compound 2, N′-[2-(3,4-Difluoro-6-methoxyphenyl)acetyl]-2-ethyl-4-hydroxy-3-methyl-benzohydrazide]
